Data as given in patent publication US20250018014A1, “METHOD FOR TREATING AND/OR PREVENTING REGNASE-1-RELATED DISEASE” (OSAKA UNIVERSITY, priority 2018, published 2025).
pIC50: −log10 of the molar value. Residues, ends and D or L forms follow the SMILES beside them.

How the values were obtained:
[1] = molecular target: T1, binding between TBK1 and full-length Regnase-1 (FL_Reg1) (Homo sapiens, UniProt Q5D1E8); experiment: Inhibition of kinase-Regnase-1 binding by the compounds (AlphaScreen), TBK1; conditions: Table 13; binding between TBK1 and Regnase-1; read-out: Binding inhibition FL_Reg1, 50% inhibition concentration (TBK1)
T1 construct: made in house; host or cells: Expi293 cells
T1 sequence (Q5D1E8 1-599): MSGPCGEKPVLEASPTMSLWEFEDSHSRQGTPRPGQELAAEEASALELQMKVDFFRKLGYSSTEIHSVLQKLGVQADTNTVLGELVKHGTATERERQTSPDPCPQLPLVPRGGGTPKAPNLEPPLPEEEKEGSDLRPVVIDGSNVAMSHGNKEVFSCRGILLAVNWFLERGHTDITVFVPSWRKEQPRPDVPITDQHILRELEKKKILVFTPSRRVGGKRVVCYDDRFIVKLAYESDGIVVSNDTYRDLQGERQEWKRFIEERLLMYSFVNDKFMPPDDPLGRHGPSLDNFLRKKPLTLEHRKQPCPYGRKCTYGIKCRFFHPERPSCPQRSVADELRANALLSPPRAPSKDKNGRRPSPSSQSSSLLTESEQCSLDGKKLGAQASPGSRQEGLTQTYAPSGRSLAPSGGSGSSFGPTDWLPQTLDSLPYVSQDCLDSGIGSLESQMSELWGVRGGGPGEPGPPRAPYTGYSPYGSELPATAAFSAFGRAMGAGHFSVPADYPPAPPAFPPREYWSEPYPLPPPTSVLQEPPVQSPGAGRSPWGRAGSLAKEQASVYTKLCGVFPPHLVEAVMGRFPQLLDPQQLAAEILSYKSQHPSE
Description: (§1) As a target protein, a construct having a FLAG tag on the N-terminal side and a recognition sequence for biotin ligase BirA on the C-terminal side of the full-length sequence of human Regnase-1 (UniProt ID: Q5D1E8) was prepared (FL_Reg1). The above-mentioned Regnase-1 was expressed in mammalian Expi293 cells, purified with FLAG M2 agarose, and isolated by gel filtration chromatography. When biotinylation was required, methods from nonpatent documents (BMC biotechnology, 2008,8,41; and Protein Science, 1999,8,921-929) were used.
(§2) After mixing 2.5 nM of the above-mentioned Regnase-1 and the compound, 2.5 nM of IKKβ or TBK1 was added and reacted at room temperature for two hours. Then, Anti FLAG AlphaLISA Acceptor Beads (manufactured by PerkinElmer) and Glutathione-coated AlphaScreen Donor Beads (manufactured by PerkinElmer) were added, and excited luminescence was measured using En Vision (manufactured by PerkinElmer). As the results, the inhibition rate from the signals obtained when adding the compound at each concentration were calculated, by defining the signal obtained with Regnase-1 alone to be 100% inhibition rate, and the signal obtained when the same amount of solvent (DMSO) is added in place of the compound as 0% inhibition rate. The 50% inhibition concentration (μM) was calculated from the obtained dose response curve (Table 12).

[2] = molecular target: T2, Reg1_301-599 (amino acids 301-599 of human Regnase-1) phosphorylation by IKKβ (Homo sapiens, UniProt Q5D1E8); experiment: Regnase-1 phosphorylation inhibition by compounds (AlphaScreen), IKKβ, C-terminal Regnase-1; assay type: biochemical; conditions: Table 14, read-out: Phosphorylation inhibition Reg1_301-599, 50% inhibition concentration (IKKβ)
T2 construct: made in house; host or cells: Expi293 cells
T2 sequence (Q5D1E8 301-599): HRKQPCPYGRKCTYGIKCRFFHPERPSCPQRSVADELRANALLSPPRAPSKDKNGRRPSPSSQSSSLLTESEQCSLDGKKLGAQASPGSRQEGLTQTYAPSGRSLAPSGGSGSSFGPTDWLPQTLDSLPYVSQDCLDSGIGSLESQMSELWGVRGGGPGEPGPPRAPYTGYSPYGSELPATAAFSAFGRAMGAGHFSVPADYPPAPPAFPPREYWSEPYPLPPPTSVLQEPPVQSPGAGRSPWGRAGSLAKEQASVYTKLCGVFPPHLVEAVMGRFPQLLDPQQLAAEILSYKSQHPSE
Source text: as §1, with “The full-length sequence of human Regnase-1 (UniProt ID: Q5D1E8) was used to prepare” for “As a target protein,”, “(FL_Reg1) as a target protein.” for “of the full-length sequence of human Regnase-1 (UniProt ID: Q5D1E8) was prepared (FL_Reg1).”
Among the full-length human Regnase-1 sequence, the 1st to 546th amino acid sequence was prepared and made into a construct having a FLAG tag on the N-terminal side and a biotin ligase BirA recognition sequence on the C-terminal side (herein, a Regnase-1 lacking the C-terminal domain of Regnase-1 (amino acids 547 to 599 in the case of SEQ ID NO: 2) is referred to as “ΔCTD_Reg1”. “ΔCTD_Reg1” is different from “Regnase-1ΔCTD”, which is a C-terminal domain deletion variant resulting from a frameshift mutation caused by a 1 bp deletion at codon 517, as prepared in Example 13). In addition, the sequence from amino acids 301 to 599 of the full-length human Regnase-1 sequence was designated as C-terminal Regnase-1, and a construct having a FLAG tag on the N-terminal side and a recognition sequence for biotin ligase BirA on the C-terminal side was prepared (Reg1_301-599). The above-mentioned Regnase-1 was expressed in mammalian Expi293 cells, purified with FLAG M2 agarose, and isolated by gel filtration chromatography. When biotinylation was required, methods of nonpatent documents (BMC biotechnology, 2008,8,41; and Protein Science, 1999,8,921-929) were used.
(§3) Using Kinase assay buffer III (manufactured by SignalChem) supplemented with 2 mM DTT, 100 μM sodium vanadate, and 2 mM manganese chloride, kinase (IKKβ (manufactured by SignalChem) or TBK1 (manufactured by SignalChem)) and Regnase-1 were reacted in the presence of 10 μM ATP at room temperature for 2 hours to perform a phosphorylation reaction.
(§4) Phosphorylated Regnase-1 was detected by the AlphaScreen system. After each of the above-mentioned phosphorylated Regnase-1 antibodies was added and reacted at room temperature for one hour, anti-FLAG AlphaLISA Acceptor Beads (manufactured by PerkinElmer) and Protein A AlphaScreen Donor Beads (manufactured by PerkinElmer) were added, and EnVision (manufactured by PerkinElmer) was used to measure the excited luminescence. As a result, phosphorylated Regnase-1 produced by the phosphorylation reaction by kinase was specifically detected, and signals were confirmed to be enhanced in a manner dependent on Regnase-1 and kinase concentrations (FIG. 24).
(§5) After mixing 2 nM of the above-mentioned Regnase-1 and the compound, phosphorylated Regnase-1 produced by the phosphorylation reaction was detected by the AlphaScreen system. As the results, the inhibition rate was calculated from the signals obtained when adding the compound at each concentration, by defining the signal obtained with Regnase-1 alone to be 100% inhibition rate, and the signal obtained when the same amount of solvent (DMSO) is added in place of the compound as 0% inhibition rate. The 50% inhibition concentration (μM) was calculated from the obtained dose response curve (Table 11).

[3] = molecular target: T3, binding between IKKβ and full-length Regnase-1 (FL_Reg1) (Homo sapiens, UniProt Q5D1E8); experiment: Inhibition of kinase-Regnase-1 binding by the compounds (AlphaScreen), IKKβ; conditions: Table 14; binding between IKKβ and Regnase-1; read-out: Binding inhibition FL_Reg1, 50% inhibition concentration (IKKβ)
T3 construct: made in house; host or cells: Expi293 cells
T3 sequence (Q5D1E8 1-599): T1 sequence (Q5D1E8 1-599)
Description: as §1, §2

[4] = molecular target: T4, FL_Reg1 (full-length human Regnase-1) phosphorylation by TBK1 (Homo sapiens, UniProt Q5D1E8); experiment: Regnase-1 phosphorylation inhibition by compounds (AlphaScreen), TBK1, full-length Regnase-1; assay type: biochemical; conditions: Table 13; phosphorylation by TBK1; read-out: Phosphorylation inhibition FL_Reg1, 50% inhibition concentration (TBK1)
T4 construct: made in house; host or cells: Expi293 cells
T4 sequence (Q5D1E8 1-599): T1 sequence (Q5D1E8 1-599)
Source text: as §1, with “The full-length sequence of human Regnase-1 (UniProt ID: Q5D1E8) was used to prepare” for “As a target protein,”, “(FL_Reg1) as a target protein.” for “of the full-length sequence of human Regnase-1 (UniProt ID: Q5D1E8) was prepared (FL_Reg1).”, “used. […]” for “used.”
as §3, §4, §5

[5] = molecular target: T5, FL_Reg1 (full-length human Regnase-1) phosphorylation by IKKβ (Homo sapiens, UniProt Q5D1E8); experiment: Regnase-1 phosphorylation inhibition by compounds (AlphaScreen), IKKβ, full-length Regnase-1; assay type: biochemical; conditions: Table 14; phosphorylation by IKKβ; read-out: Phosphorylation inhibition FL_Reg1, 50% inhibition concentration (IKKβ)
T5 construct: made in house; host or cells: Expi293 cells
T5 sequence (Q5D1E8 1-599): T1 sequence (Q5D1E8 1-599)
Source text: as §1, with “The full-length sequence of human Regnase-1 (UniProt ID: Q5D1E8) was used to prepare” for “As a target protein,”, “(FL_Reg1) as a target protein.” for “of the full-length sequence of human Regnase-1 (UniProt ID: Q5D1E8) was prepared (FL_Reg1).”, “used. […]” for “used.”
as §3, §4, §5

FL_Reg1 = molecular target: T6, FL_Reg1 (Homo sapiens, UniProt Q5D1E8); experiment: Binding of Regnase-1 and peptide compounds (affinity mass analysis, SEC then LC/MS); conditions: 1 μM FL_Reg1, final compound concentration 1 μM, 23° C. for one hour
T6 construct: made in house; host or cells: Expi293 cells
T6 sequence (Q5D1E8 1-599): T1 sequence (Q5D1E8 1-599)
Description: To a 96 PP plate (Greiner bio-one, 651201) coated with lipidure (Lipidure-CM5206) (NOF CORPORATION, 71S42000001), 2 μL of Tris-Buffer (25 mM Tris-NaOH pH 8.3, 300 mM NaCl, 1 mM DTT, 1 mM EDTA, 1% DMSO) was dispensed, and then 1 mM DMSO sample was added at 20 nL each with a LABCYTE ECHO (registered trademark) acoustic dispensing system. Furthermore, 18 μL of protein prepared at 1 μM FL_Reg1 in advance using Tris-Buffer was added (final compound concentration: 1 μM), and the mixture was incubated in the dark at 23° C. for one hour. Then, to a 96-well, 400 μL, Hydrophilic PVDF 0.45 μm, Long drip (Harvard, 74-5556), 100 μL of P-2, Fine (Bio-Rad, 1504114) which had been swollen in advance was added, and conditioning was performed by centrifuging several times at 2000× G for two minutes using the buffer. Next, 20 μL of the sample after incubation was added to the conditioned 96-well, 400 μL, Hydrophilic PVDF 0.45 μm, Long drip, and SEC treatment was performed by centrifugation at 2000×G for two minutes. To the liquid from SEC, 32 μL of acetonitrile (LC/MS grade, FUJIFILM Wako Pure Chemical Industries, Ltd.) supplemented with 0.1% formic acid (LC/MS grade, 067-04531, FUJIFILM Wako Pure Chemical Industries, Ltd.) was added, and this was centrifuged at 1800×G for five minutes, and the supernatant was used as an analysis sample for LC/MS measurement. Binding to Regnase-1 was detected for all of the peptide compounds, PP1 to PP25.

pIC50 [1] | pIC50 [2] | pIC50 [3] | pIC50 [4] | pIC50 [5] | AS-MS ratio(%) (FL_Reg1) | Structure (SMILES)
5.19 | 5.24 | 5.13 | 5.54 | 5.85 |  | CC[C@H](C)[C@@H]1NC(=O)[C@H](CC(N)=O)NC(=O)[C@H](Cc2ccc(O)cc2)NC(=O)[C@H](Cc2c[nH]c3ccccc23)NC(=O)[C@H](CO)NC(=O)[C@H](CC(N)=O)NC(=O)[C@H](Cc2c[nH]c3ccccc23)NC(=O)[C@H](Cc2ccc(O)cc2)NC(=O)[C@H](CCCCN)NC(=O)[C@H](CO)NC(=O)[C@@H](C)N(C)C(=O)C[C@@H](C(=O)N2CCCC2)NC(=O)[C@H](Cc2c[nH]c3ccccc23)NC1=O [PP8] (HELM PEPTIDE1{[C[C@H](C(=O)[*:2])N(C)[*:1]].S.K.Y.W.N.S.W.Y.N.I.W.D.[C1CCN([*:1])C1]}$PEPTIDE1,PEPTIDE1,1:R1-13:R3$$$V2.0)
4.86 |  | 4.77 | 5.08 | 5.44 | 0.1 | CC(C)[C@@H]1NC(=O)[C@H](Cc2c[nH]c3ccccc23)NC(=O)[C@H](CCCCN)NC(=O)[C@H](Cc2c[nH]c3ccccc23)NC(=O)[C@H](CCC(N)=O)NC(=O)[C@H](CCCNC(=N)N)NC(=O)[C@H](Cc2ccccc2)NC(=O)[C@H](CCCNC(=N)N)NC(=O)[C@H](C)N(C)C(=O)C[C@@H](C(=O)N2CCCC2)NC(=O)[C@@H]2CCCN2C(=O)[C@H](Cc2ccc(O)cc2)NC1=O [PP13] (HELM PEPTIDE1{[meA].R.F.R.Q.W.K.W.V.Y.P.D.[C1CCN([*:1])C1]}$PEPTIDE1,PEPTIDE1,1:R1-12:R3$$$V2.0)
